Reference: patent publication US20240293537A1, “A[…]-GRAFTED LAURYL GAMMA-POL[…] USE THEREOF” (JIANGSU ACADEMY OF AGRICULTURAL SCIENCES, priority 2021, published 2024)

Legend:
Female Balb/c mice = conditions: as adjuvant with OVA, 200 μL/mouse, serum 28 days after inoculation
Experimental: In addition, 500 μg/mL of an OVA solution (abbreviated as OVA) was prepared by taking a PBS buffer with a pH of 7.4 as a solvent; 100 μg/mL of an FIP solution (abbreviated as FIP) was prepared by taking a PBS buffer with a pH of 7.4 as a solvent.
After inoculation, the skin condition of the injection site was observed over one week. Blood was collected from the orbit 28 days after inoculation, and sera were separated and the antibody titer was measured.
The antibody titer was measured by adopting the following method: 10 μg/mL of an OVA protein solution was prepared by taking 0.05 mol/L of a Na2CO3—NaHCO3 buffer with a pH of 9.6 as a solvent. […]

RAW 264.7 cells = test system: RAW 264.7 cells
Experimental: After incubation for 24 h, the cells were pipetted, washed three times with PBS, centrifuged and finally resuspended in ice PBS before assay with flow cytometer (BD FACSCalibur flow cytometer).

Molecule	IgG titer (OD450 nm) (Female Balb/c mice)	solubility in acidic aqueous solution (acidic aqueous solution with a pH≤6)	solubility in solvent phase (hot DMSO and DMF solutions)	fluorescence of cells (uptake) (RAW 264.7 cells; RAW 264.7, 24 h, FIP 50 μg/mL)	fluorescence intensity of the cells with increase of FIP concentration (RAW 264.7 cells; RAW 264.7, different FIP concentrations)
CC(C)Cn1cnc2c(N)nc3ccccc3c21 [Vaccine R837, imiquimod]	3.07	can be dissolved	slightly soluble	–	–
fluorescein-labeled amphiphilic imiquimod-grafted lauryl γ-polyglutamate [FIP]	2.1	–	–	a distinct fluorescence peak could still be seen	gradually increased
